The values below come from patent publication US8980906B2, “Pyridonemorphinan analogs and biological activity on opioid receptors” (Purdue Pharma L.P., priority 2012, dated 2015).

One may read the Ki as the equilibrium dissociation constant of an inhibitor or competing ligand from its target. By EC50 is commonly meant the midpoint of the concentration-response curve. A high value points to lower potency in that assay. What is called Emax is the size of the effect at its maximum, as opposed to the concentration needed.

The structures appear in SMILES notation.

The target of one assay is μ-opioid receptor (Homo sapiens (Human), UniProt P35372). As to the kind of experiment: μ-opioid receptor radioligand dose-displacement binding assay ([3H]-diprenorphine). To be noted: binding affinity, [3H]-diprenorphine displacement; read-out: Ki (nM) Opioid Receptor μ. On the procedure:
μ-Opioid Receptor Binding Assay Procedures: Radioligand dose-displacement binding assays for μ-opioid receptors used 0.3 nM [^3H]-diprenorphine (Perkin Elmer, Shelton, Conn.), with […] membrane protein/well in a final volume of 500 μl binding buffer (10 mM MgCl2, 1 mM EDTA, 5% DMSO, 50 mM HEPES, pH 7.4). Reactions were carried out in the absence or presence of increasing concentrations of unlabeled naloxone. All reactions were conducted in 96-deep well polypropylene plates for 2 hours at room temperature. Binding reactions were terminated by rapid filtration onto 96-well Unifilter GF/C filter plates (Perkin Elmer, Shelton, Conn.), presoaked in 0.5% polyethylenimine using a 96-well tissue harvester (Perkin Elmer, Shelton, Conn.) followed by performing three filtration washes with 500 μl of ice-cold binding buffer. Filter plates were subsequently dried at 50° C. for 2-3 hours. BetaScint scintillation cocktail (Perkin Elmer, Shelton, Conn.) was added (50 μl/well), and plates were counted using a Packard Top-Count for 1 min/well. The data were analyzed using the one-site competition curve fitting functions in GraphPad PRISM™ v. 3.0 or higher (San Diego, Calif.), or an in-house function for one-site competition curve-fitting.

In the next assay the target is κ-opioid receptor (Homo sapiens (Human), UniProt P41145). Briefly: κ-opioid receptor radioligand dose-displacement binding assay ([3H]-U69,593). The note with it: binding affinity, [3H]-U69,593 displacement. In short, it runs like this:
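Competition binding with 0.4 nM [3H]-U69,593 and 15 μg membrane protein from HEK 293 cells expressing recombinant human κ receptor, in 50 mM Tris pH 7.4 with 5% DMSO, 1 h at about 25 °C. Nonspecific binding defined with 10 μM naloxone or U69,593; bound ligand collected by GF/C filtration and scintillation counting.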

A further assay deals with δ-opioid receptor (Homo sapiens (Human), UniProt P41143). Briefly: δ-opioid receptor [35S]GTPγS functional assay, HEK-293 or CHO cells. The class given is biochemical. As to the method:
δ-Opioid Receptor Functional Assay Procedures: Functional [^35S]GTPγS binding assays were conducted as follows. δ-Opioid receptor membrane solution was prepared by sequentially adding final concentrations of 0.026 μg/μl δ membrane protein (Perkin Elmer, Shelton, Conn.), 10 μg/mL saponin, 3 μM GDP and 0.20 nM [^35S]GTPγS to binding buffer (100 mM NaCl, 10 mM MgCl2, 20 mM HEPES, pH 7.4) on ice. The prepared membrane solution (190 μl/well) was transferred to 96-shallow well polypropylene plates containing 10 μl of 20× concentrated stock solutions of agonist prepared in DMSO. Plates were incubated for 30 min at a temperature of about 25° C. with shaking. Reactions were terminated by rapid filtration onto 96-well Unifilter GF/B filter plates (Perkin Elmer, Shelton, Conn.) using a 96-well tissue harvester (Packard) and followed by three filtration washes with 200 μl ice-cold binding buffer (10 mM NaH2PO4, 10 mM Na2HPO4, pH 7.4). Filter plates were subsequently dried at 50° C. for 1-2 hours. Fifty μl/well scintillation cocktail (Perkin Elmer, Shelton, Conn.) was added and plates were counted in a Packard Top-count for 1 min/well.
δ-Opioid Receptor Functional Data: δ GTP EC50 is the concentration of a compound providing 50% of the maximal response for the compound at a δ receptor.
δ GTP Emax (%) is the maximal effect elicited by a compound relative to the effect elicited by met-enkephalin.
In TABLE 2, activity response of certain Compounds of the Invention to the μ-, δ- and κ-opioid receptors was determined as described above for functional assays using HEK-293 or CHO cells.
Background: Binding of GTPγS marks nucleotide exchange on a G protein.

Chain of δ-opioid receptor (P41143 whole entry, looked up): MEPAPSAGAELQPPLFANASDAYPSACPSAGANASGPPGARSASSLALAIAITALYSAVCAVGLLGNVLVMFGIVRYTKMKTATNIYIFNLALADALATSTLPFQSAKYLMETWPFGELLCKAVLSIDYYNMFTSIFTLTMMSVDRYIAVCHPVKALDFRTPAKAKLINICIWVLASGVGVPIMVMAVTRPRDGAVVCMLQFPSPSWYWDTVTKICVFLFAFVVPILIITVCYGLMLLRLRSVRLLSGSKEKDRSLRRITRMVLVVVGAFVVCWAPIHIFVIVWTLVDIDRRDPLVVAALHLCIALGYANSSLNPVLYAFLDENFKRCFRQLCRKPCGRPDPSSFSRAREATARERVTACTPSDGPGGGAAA

With `O=C(O)c1cc2c([nH]c1=O)C[C@]13CCN(CC4CC4)[C@H](Cc4ccc(O)cc41)[C@]3(O)C2` [Compound 9, (6R,6aS,12aR)-15-(cyclopropylmethyl)-2,6a-dihydroxy-10-oxo-6,6a,7,10,11,12-hexahydro-5H-6,12a-(epiminoethano)naphtho[2,1-g]quinoline-9-carboxylic acid], the Ki at μ-opioid receptor turned out to be 3.11 ± 0.9 nM; at κ-opioid receptor it was 1.52 ± 0.18 nM. This compound gave an EC50 at δ-opioid receptor greater than 20 µM.
On to `NC(=O)c1cc2c([nH]c1=O)C[C@]13CCN(CC4CC4)[C@H](Cc4ccc(O)cc41)[C@]3(O)C2` [Compound 5, (6R,6aS,12aR)-15-(cyclopropylmethyl)-2,6a-dihydroxy-10-oxo-6,6a,7,10,11,12-hexahydro-5H-6,12a-(epiminoethano)naphtho[2,1-g]quinoline-9-carboxamide], for which the Ki on μ-opioid receptor amounted to 6.55 ± 2.06 nM; on κ-opioid receptor, 0.58 ± 0.15 nM. Moreover, the concentration for a half-maximal effect (EC50) on δ-opioid receptor is greater than 20 µM.
For the compound `O=C(O)c1cc2c([nH]c1=O)C[C@]13CCN(CC4CC4)[C@H](Cc4ccc(O)cc41)[C@@H]3C2` [Compound 11, (6R,6aR,12aS)-15-(cyclopropylmethyl)-2-hydroxy-10-oxo-6,6a,7,10,11,12-hexahydro-5H-6,12a-(epiminoethano)naphtho[2,1-g]quinoline-9-carboxylic acid], the inhibitory constant (Ki) stood at 0.52 ± 0.12 nM on μ-opioid receptor and 18.5 ± 7.73 nM on κ-opioid receptor. For the same compound, on δ-opioid receptor, the EC50 came to 0.00353 ± 0.0015 µM. The Emax at δ-opioid receptor (relative to met-enkephalin, HEK-293 or CHO cells) came out at 36 ± 3.21%.
